Measurements taken from publication PMC9143880, “Improving Antimicrobial Activity and Physico-Chemical Properties by Isosteric Replacement of 2-Aminothiazole with 2-Aminooxazole” (Pharmaceuticals, 2022).
In brackets after ≈: the same amount, converted by molar mass. Where two headings read alike, the source gives them in different places.

Key:
[1] = tested on: Pseudomonas aeruginosa CCM 3955 (ATCC 27853); test: Antibacterial microdilution broth (EUCAST); type: cell-based; conditions: Pseudomonas aeruginosa; 72h incubation; read-out: MIC PA
HepG2 cells = test: HepG2 cytotoxicity screening (CellTiter 96); type: cell-based, human; conditions: for IC50: Homo sapiens, HepG2, 24 h, 24 h incubation, CellTiter 96, * above highest tested concentration, ** limited by insolubility in medium; for SI: SI = IC50 (µM) HepG2 / MICH37Ra (µM)
[2] = tested on: Staphylococcus epidermidis CCM 4418 (ATCC 12228); test: Antibacterial microdilution broth (EUCAST); type: cell-based; conditions: Staphylococcus epidermidis; 24h incubation; read-out: MIC SE
[3] = tested on: Mycobacterium tuberculosis H37Ra ITM-M006710 (ATCC 9431); test: Antimycobacterial MIC, microdilution broth / Alamar Blue (resazurin); type: cell-based; conditions: Mycobacterium tuberculosis
[4] = tested on: Candida krusei CCM 8271 (ATCC 6258); test: Antifungal microdilution broth (EUCAST); conditions: Pichia kudriavzevii, 24 h, read-out: MIC CK
[5] = tested on: Trichophyton interdigitale CCM 8377 (ATCC 9533); test: Antifungal microdilution broth (EUCAST); conditions: Trichophyton interdigitale, 72 h, read-out: MIC TI
[6] = tested on: Escherichia coli CCM 3954 (ATCC 25922); test: Antibacterial microdilution broth (EUCAST); type: cell-based; conditions: Escherichia coli; 24h incubation; read-out: MIC EC
[7] = tested on: M. aurum DSM 43999 (ATCC 23366); test: Antimycobacterial MIC, microdilution broth / resazurin; type: cell-based; conditions: Mycolicibacterium aurum, read-out: MIC M. aurum
[8] = tested on: Aspergillus fumigatus ATCC 204305; test: Antifungal microdilution broth (EUCAST); conditions: Aspergillus fumigatus, ATCC204305, 24 h, read-out: MIC AF
[9] = tested on: Candida tropicalis CCM 8264 (ATCC 750); test: Antifungal microdilution broth (EUCAST); conditions: Candida tropicalis, 24 h, read-out: MIC CT
[10] = tested on: Aspergillus flavus CCM 8363; test: Antifungal microdilution broth (EUCAST); conditions: Aspergillus flavus, CCM8363, 24 h, read-out: MIC AFla
[11] = tested on: Candida albicans CCM 8320 (ATCC 24433); test: Antifungal microdilution broth (EUCAST); conditions: Candida albicans, 24 h, read-out: MIC CA
[12] = tested on: Candida parapsilosis CCM 8260 (ATCC 22019); test: Antifungal microdilution broth (EUCAST); conditions: Lodderomyces parapsilosis, 24 h, read-out: MIC CP
[13] = tested on: Staphylococcus aureus subsp. aureus (MRSA) CCM 4750 (ATCC 43300); test: Antibacterial microdilution broth (EUCAST); type: cell-based; conditions: Staphylococcus aureus; 24h incubation; read-out: MIC MRSA
[14] = tested on: Enterococcus faecalis CCM 4224 (ATCC 29212); test: Antibacterial microdilution broth (EUCAST); type: cell-based; conditions: Enterococcus faecalis; 24h incubation; read-out: MIC EF
[15] = tested on: M. smegmatis DSM 43465 (ATCC 607); test: Antimycobacterial MIC, microdilution broth / resazurin; type: cell-based; conditions: Mycolicibacterium smegmatis; resazurin after 48 h; read-out: MIC M. smegmatis
[16] = RP-UHPLC lipophilicity parameter log k’w; type: physicochemical; conditions: for log k’w: RP-UHPLC, acetonitrile/water, log k extrapolated to 0% acetonitrile; for logkw: experimental lipophilicity parameter
Summary of the method: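 log k’w from isocratic RP-UHPLC with an acetonitrile/water mobile phase, using 40, 45 and 50% acetonitrile for subtype I and 20, 30 and 40% for subtype II. A single run was made at each mobile-phase composition.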

[17] = tested on: Lichtheimia corymbifera CCM 8077; test: Antifungal microdilution broth (EUCAST); conditions: Lichtheimia corymbifera, CCM8077, 24 h, read-out: MIC LC
[18] = tested on: Acinetobacter baumannii DSM 30007 (ATCC 19606); test: Antibacterial microdilution broth (EUCAST); type: cell-based; conditions: Acinetobacter baumannii; 24h incubation; read-out: MIC AB
[19] = Kinetic water solubility (water-induced precipitation of DMSO stock, UHPLC); type: physicochemical; conditions: for solubility: water (DMSO stock diluted with water), 18 °C, kinetic from dmso stock
Text: A low value of log P is often presumed to be related to increased water solubility, although this might not always be the case since log P is a measure of relative solubility of the compound in the lipophilic and hydrophilic solvents (at equilibrium). Therefore, to be sure, we tested whether the lowered log k’w (related to log P) of the oxazole derivatives would also translate to increased solubility in water in a few representative derivatives. The water solubility of selected compounds was assessed by the kinetic method based on water-induced precipitation of DMSO stock solutions of tested compounds due to reasons described by Azzali and colleagues.
Water solubility was investigated using the kinetic solubility method. The sample (1 mg) was dissolved in the smallest amount of DMSO needed, 25 or 50 μL for subtype I and subtype II compounds, respectively. The samples were mixed at 18 °C in a thermomixer (Thermomixer comfort, Eppendorf, Hamburg, Germany) for 1 h. After mixing, the samples were diluted with water to a concentration of 500 μM, and the precipitate was observed. The sample was filtered through a 0.22 μm filter and diluted to be evaluated by UHPLC. The log S parameter was calculated from the experimental solubility in molar concentration. The samples were measured using the same instrument, software, and column as used in the purity evaluation.

[20] = tested on: Staphylococcus aureus subsp. aureus CCM 4223 (ATCC 29213); test: Antibacterial microdilution broth (EUCAST); type: cell-based; conditions: Staphylococcus aureus; 24h incubation; read-out: MIC SA
[21] = tested on: M. avium DSM 44156 (ATCC 25291); test: Antimycobacterial MIC, microdilution broth / resazurin; type: cell-based, Mycobacterium avium; conditions: Mycobacterium avium; resazurin after 96 h; read-out: MIC M. avium
[22] = tested on: M. kansasii DSM 44162 (ATCC 12478); test: Antimycobacterial MIC, microdilution broth / resazurin; type: cell-based; conditions: Mycobacterium kansasii, read-out: MIC M. kansasii
Mtb laboratory ID MATI = type: cell-based, Mycobacterium tuberculosis; conditions: MDR strain MATI, CLSI breakpoints 2021
Mtb laboratory ID IZAK = type: cell-based, Mycobacterium tuberculosis; conditions: MDR strain IZAK, CLSI breakpoints 2020
[23] = 120 h, Middlebrook 7H9, resazurin after 120 h, read-out: Mtb H37Ra MIC
[24] = calculated from experimentally measured water solubility in molar concentration, read-out: Exp. log S (converted)
[25] = water, kinetic method, DMSO stock diluted to 500 μM, read-out: Solubility
[26] = recalculated from µg/mL, read-out: MICH37Ra

Compound	MIC [1] [µM]	IC50 (HepG2 cells) [µM]	MIC [2] [µM]	MIC [3, 23] [µg/mL]	MIC [4] [µM]	MIC [5] [µM]	MIC [6] [µM]	MIC [8] [µM]	MIC [9] [µM]	MIC [10] [µM]	MIC [11] [µM]	MIC [12] [µM]	MIC [13] [µM]	MIC [14] [µM]	MIC [15] [µg/mL]	log k’w [16]	logkw [16]	MIC [17] [µM]	MIC [18] [µM]	solubility [19, 24] [µM]	also measured
O=C(Nc1nc(-c2ccccc2)co1)c1cccnc1 [Compound 12b]	> 500	610	62.5 (≈ 16.6 µg/mL)	125	> 500	> 500	> 500	> 500	> 500	> 500	> 500	> 500	> 500	> 500	500 (≈ 1880 µM)	1.118	1.118	> 500	> 500	437	MIC ([7]; resazurin after 72 h): 250 µg/mL (≈ 942 µM); logS_exp ([19]; experimental log S): -2.228; solubility [19, 25]: 116 µg/mL; MIC [20]: 500 µM (≈ 133 µg/mL)
O=C(Nc1nc(-c2ccccc2)cs1)c1ccnc(Cl)c1 [Compound 15a]	> 500	103	> 500	3.91	> 125	> 125	> 500	> 125	> 125	> 125	> 125	> 125	> 500	> 500	15.6 (≈ 49.5 µM)	3.036	3.036	> 125	> 500	6.61	SI (HepG2 cells): 8.3; MIC [21]: 15.6 µg/mL (≈ 49.5 µM); MIC [3, 26]: 12.4 µM; melting point: 158 to 162 °C; MIC ([7]; resazurin after 72 h): 31.2 µg/mL (≈ 99 µM); MIC ([22]; 96 h): < 3.91 µg/mL; solubility [19, 25]: 2.1 µg/mL; MIC [20]: > 500 µM
O=C(Nc1nc(-c2ccccc2)co1)c1ccnc(Cl)c1 [Compound 15b]	> 500	136	250 (≈ 74.9 µg/mL)	7.81	500 (≈ 150 µg/mL)	500 (≈ 150 µg/mL)	> 500	> 500	500 (≈ 150 µg/mL)	> 500	500 (≈ 150 µg/mL)	500 (≈ 150 µg/mL)	62.5 (≈ 18.7 µg/mL)	250 (≈ 74.9 µg/mL)	31.2 (≈ 104 µM)	1.992	1.992	> 500	500 (≈ 150 µg/mL)	417	SI (HepG2 cells): 5.2; MIC [21]: 15.6 µg/mL (≈ 52.1 µM); MIC [3, 26]: 26.1 µM; MIC ([7]; 72 h): 7.81 µg/mL (≈ 26.1 µM); MIC ([22]; resazurin after 96 h): 15.6 µg/mL (≈ 52.1 µM); solubility [19, 25]: 124 µg/mL; MIC [20]: 62.5 µM (≈ 18.7 µg/mL)
NC(=O)c1cnccn1 [PZA, pyrazinamide]	–	–	–	–	–	–	–	–	–	–	–	–	–	–	–	–	–	–	–	–	Concentration (susceptibility profile) (Mtb laboratory ID MATI): > 128 µg/mL; Susceptibility (Mtb laboratory ID MATI): resistant; Concentration (susceptibility profile) (Mtb laboratory ID IZAK): > 16 µg/mL; Susceptibility (Mtb laboratory ID IZAK): resistant
[H]/N=C(/N)N[C@H]1[C@H](O)[C@@H](O)[C@H](O[C@@H]2O[C@@H](C)[C@](O)(C=O)[C@H]2O[C@@H]2O[C@@H](CO)[C@H](O)[C@@H](O)[C@@H]2NC)[C@@H](N/C(N)=N\[H])[C@@H]1O [STM, streptomycin]	–	–	–	–	–	–	–	–	–	–	–	–	–	–	–	–	–	–	–	–	Concentration (susceptibility profile) (Mtb laboratory ID MATI): > 16 µg/mL; Susceptibility (Mtb laboratory ID MATI): resistant; Concentration (susceptibility profile) (Mtb laboratory ID IZAK): 4 µg/mL; Susceptibility (Mtb laboratory ID IZAK): resistant
